Experimental data published in patent US20260207565A1, “COMPOUNDS THAT INHIBIT PKMYT1” (Exelixis, Inc., priority 2022, published 2026).
pIC50: −log10 of the molar value. Read-outs that look alike come from different tables or passages of the source.

Tests used:
[1] = biological target: T1, PKMYT1 (Homo sapiens, UniProt Q99640); assay: ADP-Glo PKMYT1 ATP-depletion assay; settings: 50 nM PKMYT1, 13.3 nM CDK1, 88 μM ATP, 120 minutes at RT, read-out: Biochemical IC50
T1 construct: PKMYT1 (93 kD, full length, N-terminal GST tag from Signal Chem); GST (N); purchased Signal Chem
T1 sequence (Q99640 1-499): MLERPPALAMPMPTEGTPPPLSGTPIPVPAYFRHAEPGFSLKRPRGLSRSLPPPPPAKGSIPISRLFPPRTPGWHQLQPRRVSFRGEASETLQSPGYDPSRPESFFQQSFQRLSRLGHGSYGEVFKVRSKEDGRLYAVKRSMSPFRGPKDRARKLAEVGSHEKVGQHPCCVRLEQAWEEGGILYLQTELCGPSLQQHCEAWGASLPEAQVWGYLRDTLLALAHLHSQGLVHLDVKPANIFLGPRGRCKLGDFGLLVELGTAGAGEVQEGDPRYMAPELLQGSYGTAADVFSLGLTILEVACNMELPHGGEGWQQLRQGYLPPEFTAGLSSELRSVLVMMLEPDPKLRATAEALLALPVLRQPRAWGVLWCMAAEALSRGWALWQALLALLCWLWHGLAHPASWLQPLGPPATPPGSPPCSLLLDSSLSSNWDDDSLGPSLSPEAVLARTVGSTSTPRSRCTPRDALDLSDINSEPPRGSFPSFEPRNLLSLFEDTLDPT
Method: (§1) Biochemical IC50 values were determined via ADP-Glo™ assay. Cellular IC50 values were determined via AlphaLISA assay.
ADP-Glo™ PKMYT1 ATP-depletion assay. The activity of PKMYT1 is measured using a luciferase-luciferin based ATP detection reaction to quantify ATP depletion resulting from kinase-catalyzed phosphoryl transfer to CDK1 or autophosphorylation of PKMYT1. The ADP generated as a byproduct of the reaction is converted to ATP and used to drive a luciferase reaction. Test compounds were dissolved in DMSO and dispensed into Corning 3824 384-well plates prior to the experiment such that the final DMSO concentration was <10%. To the compounds was added 3 μL of PKMYT1 (93 kD, full length, N-terminal GST tag from Signal Chem). The reaction was started by the addition of 2 μL of CDK1 (58 kDa, full length, N-terminal GST tag from Signal Chem) and ATP in assay buffer (50 mM Hepes, 40 mM NaCl, 10 mM MgCl2, 1 mM DTT, 0.1 mg/mL BSA, 2.5 mM MnCl2). Final assay concentrations were 50 nM PKMYT1, 13.3 nM CDK1, and 88 μM ATP. Plates were centrifuged for 1 minute at 1000 RPM and incubated at RT for 120 minutes. After the incubation period, ADP-Glo™ reagent was added and the plates were incubated for another 40 minutes before finally adding the kinase detection reagent, 30 minutes after the addition, plates were placed on a PHERAstar® plate reader and read using the Luminescence Protocol, integration time at 0.5 seconds.

[2] = test system: phosphorylation of CDK1 at Thr14 in HCC1806 cells; assay: Cell lysate AlphaLISA assay measuring inhibition of phosphorylation of CDK1 Thr14; format: cell-based; settings: compounds incubated 4 hours, AlphaLISA SureFire Ultra CDK1 Thr14, read-out: Cellular IC50
Method: as §1
Cell lysate AlphaLISA® assay measuring inhibition of phosphorvlation of CDK1 Thr14. Inhibition of phosphorylation of CDK1 at Thr14 was determined using AlphaLISAn SureFire® Ultra™ Kit from Perkin Elmer (ALSU-PCDK1-A10K). HCC1806 cells were seeded at 2K cells per well (50 μl/well) in 384-well plates (Corning 3570) and stored overnight at 37° C. and 5% CO2. The following day, the compounds dissolved in DMSO were introduced to the cells and incubated for 4 hours at 37° C. and 5% CO2. The cells were then washed with PBS using Blue® Washer and 10 μl of lysis buffer containing protease inhibitor was added. The plate was placed on an orbital shaker (at 4° C.) for 30 minutes and stored overnight at −80° C. for complete lysing. The next day, the plates were thawed at room temperature for at least 30 min. Reagents were prepared in a dimmed light setting (<100 lumens). The assay was run by first adding 5 μl of the acceptor mix (reaction buffer 1: reaction buffer 2:activation buffer:acceptor beads 47:47:4:2), covering the plate with foil, shaking for 2 minutes, and incubating at RT for 60 minutes. The donor mix (dilution buffer:donor beads 47:3) was then added at 5 μl per well, placed on the shaker for 2 minutes and incubated at RT for 60 minutes before reading the plates on a PHERAstar® plate reader. The results were normalized to DMSO (0% Inhibition) and 3 μM of reference compound.

Compound | pIC50 [1] | pIC50 ([2]; Homo sapiens, HCC1806, 4 h) | pIC50 [2]
[2H]c1cc(C)c(-c2cc(C(N)=O)nc3c2c(C#N)cn3CC)c(C)c1O (atropisomer, axis not shown; (P)) [Compound 89, (P)-3-cyano-1-ethyl-4-(3-hydroxy-2,6-dimethylphenyl-4-d)-1H-pyrrolo[2,3-b]pyridine-6-carboxamide] | > 7.30 | > 7.30 | 
Cc1ccc(O)c(C)c1-c1cc(C(N)=O)nc2c1c(C#N)cn2CC(F)F (atropisomer, axis not shown; (P)) [Compound 93, (P)-3-cyano-1-(2,2-difluoroethyl)-4-(3-hydroxy-2,6-dimethylphenyl)-1H-pyrrolo[2,3-b]pyridine-6-carboxamide] | > 7.30 | > 7.30 | 
Cc1ccc(O)c(C)c1-c1c(N)c(C(N)=O)cc2c1nc(C(F)F)n2C(F)F (atropisomer, axis not shown; (P)) [Compound 94, (P)-6-amino-2,3-bis(difluoromethyl)-7-(3-hydroxy-2,6-dimethyl-phenyl)benzimidazole-5-carboxamide] | > 7.30 | > 7.30 | 
Cc1ccc(O)c(C)c1-c1c(N)c(C(N)=O)cc2c1nc(C(F)F)n2-c1ncccc1F (atropisomer, axis not shown; (P)) [Compound 95, (P)-6-amino-2-(difluoromethyl)-3-(3-fluoro-2-pyridyl)-7-(3-hydroxy-2,6-dimethyl-phenyl)benzimidazole-5-carboxamide] | > 7.30 | > 7.30 | 
CCn1cc(-n2ccnc2)c2c(-c3c(C)ccc(O)c3C)cc(C(N)=O)nc21 (atropisomer, axis not shown; (P)) [Compound 97, (P)-1-ethyl-4-(3-hydroxy-2,6-dimethylphenyl)-3-(1H-imidazol-1-yl)-1H-pyrrolo[2,3-b]pyridine-6-carboxamide] | 6.30 to 7.30 | 5.30 to 6.00 | 
Cc1ccc(O)c(C)c1-c1c(N)c(C(N)=O)cc2c1nnn2C(F)F (atropisomer, axis not shown; (P)) [Compound 98, (P)-5-amino-1-(difluoromethyl)-4-(3-hydroxy-2,6-dimethylphenyl)-1H-benzo[d][1,2,3]triazole-6-carboxamide] | > 7.30 | > 7.30 | 
Cc1c(O)cccc1-c1c(N)c(C(N)=O)nc2c1c(C#N)cn2C (racemic) [Compound 4, 5-Amino-3-cyano-4-(3-hydroxy-2-methylphenyl)-1-methyl-1H-pyrrolo[2,3-b]pyridine-6-carboxamide] | > 7.30 | > 7.30 | 
Cc1ccc(O)c(C)c1-c1cc(C(N)=O)nc2c1c(C#N)cn2CC(F)(F)F (racemic) [Compound 23, 3-cyano-4-(3-hydroxy-2,6-dimethylphenyl)-1-(2,2,2-trifluoroethyl)pyrrolo[2,3-b]pyridine-6-carboxamide] | > 7.30 | > 7.30 | 
Cc1ccc(O)c(C)c1-c1cc(C(N)=O)nc2c1c(C#N)c(C)n2C (racemic) [Compound 26, 3-cyano-4-(3-hydroxy-2,6-dimethylphenyl)-1,2-dimethyl-pyrrolo[2,3-b]pyridine-6-carboxamide] | > 7.30 | 6.30 to 7.30 | 
Cc1ccc(O)c(C)c1-c1cc(C(N)=O)nc2c1c(Cl)cn2C (racemic) [Compound 30, 3-chloro-4-(3-hydroxy-2,6-dimethylphenyl)-1-methyl-1H-pyrrolo[2,3-b]pyridine-6-carboxamide] | 6.30 to 7.30 | 5.30 to 6.00 | 
Cc1c(O)cccc1-c1c(N)c(C(N)=O)cn2c(C)nnc12 (racemic) [Compound 51, 7-Amino-8-(3-hydroxy-2-methylphenyl)-3-methyl-[1,2,4]triazolo[4,3-a]pyridine-6-carboxamide] | 6.00 to 6.30 | ≤ 5.30 | 
Cc1c(O)cccc1-c1c(N)c(C(N)=O)nc2c1c(C#N)nn2C (racemic) [Compound 54, 5-Amino-3-cyano-4-(3-hydroxy-2-methylphenyl)-1-methyl-1H-pyrazolo[3,4-b]pyridine-6-carboxamide] | > 7.30 | 6.30 to 7.30 | 
Cc1ccc(O)c(C)c1-c1c(N)c(C(N)=O)nc2c1ncn2C (single isomer, unassigned) [Compound 2, (P)-6-Amino-7-(3-hydroxy-2,6-dimethylphenyl)-3-methyl-3H-imidazo[4,5-b]pyridine-5-carboxamide] | > 7.30 |  | > 7.30
Cc1ccc(O)c(C)c1-c1c(N)c(C(N)=O)nc2c1ncn2C (single isomer, unassigned) [Compound 3, (M)-6-amino-7-(3-hydroxy-2,6-dimethylphenyl)-3-methyl-3H-imidazo[4,5-b]pyridine-5-carboxamide] | 5.30 to 6.00 |  | ≤ 5.30
Cc1c(O)cccc1-c1c(N)c(C(N)=O)nc2c1c(C#N)cn2C (single isomer, unassigned) [Compound 5, (M)-5-Amino-3-cyano-4-(3-hydroxy-2-methylphenyl)-1-methyl-1H-pyrrolo[2,3-b]pyridine-6-carboxamide] | > 7.30 | > 7.30 | 
Cc1c(O)cccc1-c1c(N)c(C(N)=O)nc2c1c(C#N)cn2C (single isomer, unassigned) [Compound 6, (P)-5-amino-3-cyano-4-(3-hydroxy-2-methylphenyl)-1-methyl-1H-pyrrolo[2,3-b]pyridine-6-carboxamide] | 6.00 to 6.30 |  | 6.30 to 7.30
Cc1ccc(O)c(C)c1-c1cc(C(N)=O)nc2c1c(C#N)cn2CC(F)(F)F (single isomer, unassigned) [Compound 25] | ≤ 5.30 | ≤ 5.30 | 
Cc1c(O)cccc1-c1c(N)c(C(N)=O)cn2ccnc12 (single isomer, unassigned) [Compound 45] | ≤ 5.30 | ≤ 5.30 | 
Cc1c(O)cccc1-c1c(N)c(C(N)=O)cn2c(C)nnc12 (single isomer, unassigned) [Compound 52, (P)-7-Amino-8-(3-hydroxy-2-methylphenyl)-3-methyl-[1,2,4]triazolo[4,3-a]pyridine-6-carboxamide] | 6.30 to 7.30 | ≤ 5.30 | 
Cc1c(O)cccc1-c1c(N)c(C(N)=O)cn2c(C)nnc12 (single isomer, unassigned) [Compound 53, (M)-7-amino-8-(3-hydroxy-2-methylphenyl)-3-methyl-[1,2,4]triazolo[4,3-a]pyridine-6-carboxamide] | ≤ 5.30 |  | ≤ 5.30
Cc1c(O)cccc1-c1c(N)c(C(N)=O)nc2c1c(C#N)nn2C (single isomer, unassigned) [Compound 58, (M)-5-Amino-3-cyano-4-(3-hydroxy-2-methylphenyl)-1-methyl-1H-pyrazolo[3,4-b]pyridine-6-carboxamide] | > 7.30 |  | 6.30 to 7.30
Cc1c(O)cccc1-c1c(N)c(C(N)=O)nc2c1c(C#N)nn2C (single isomer, unassigned) [Compound 59, (P)-5-amino-3-cyano-4-(3-hydroxy-2-methylphenyl)-1-methyl-1H-pyrazolo[3,4-b]pyridine-6-carboxamide] | 5.30 to 6.00 |  | ≤ 5.30
